According to patent US20260234147A1 (priority 2023, published 2026):
Read-outs that look alike come from different tables or passages of the source.

Legend:
[1] = target: hDOR (Homo sapiens, UniProt P41143); assay: Radioligand binding assay (Eurofins Cerep), [3H]DADLE displacement
[2] = target: hKOR (Homo sapiens, UniProt P41145); assay: Radioligand binding assay (Eurofins Cerep), [3H]U69,593 displacement
[3] = target: hMOR (Homo sapiens, UniProt P35372); assay: Radioligand binding assay (Eurofins Cerep), [3H]DAMGO displacement
[4] = target: T1, α2A adrenergic receptor (Homo sapiens, UniProt P08913); assay: Radioligand binding assay (Eurofins Cerep), [3H]RX 821002 displacement
T1 construct: Eurofins Cerep (contract screening)
T1 sequence (P08913 1-465): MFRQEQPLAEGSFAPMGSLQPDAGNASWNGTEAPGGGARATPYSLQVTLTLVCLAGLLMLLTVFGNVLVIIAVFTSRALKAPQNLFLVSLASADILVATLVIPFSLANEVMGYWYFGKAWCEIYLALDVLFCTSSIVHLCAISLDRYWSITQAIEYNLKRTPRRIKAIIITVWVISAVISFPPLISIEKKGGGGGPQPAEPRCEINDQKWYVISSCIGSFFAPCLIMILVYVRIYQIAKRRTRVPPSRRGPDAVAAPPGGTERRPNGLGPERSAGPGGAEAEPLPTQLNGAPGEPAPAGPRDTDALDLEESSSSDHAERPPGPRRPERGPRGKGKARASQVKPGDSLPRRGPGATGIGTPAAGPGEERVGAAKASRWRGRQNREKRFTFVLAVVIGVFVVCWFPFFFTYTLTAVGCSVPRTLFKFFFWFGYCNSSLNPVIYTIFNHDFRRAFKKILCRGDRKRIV

[5] = Table 3-5, 3 independent experiments, read-out: Ki (nM ± SEM) DOR
[6] = Table 3-5, 3 independent experiments, read-out: Ki (nM ± SEM) KOR
[7] = Table 3-5, 3 independent experiments, read-out: Ki (nM ± SEM) MOR
[8] = Table 3-5, 3 independent experiments, read-out: Ki (nM ± SEM) a2A-ar
[9] = Table 3-6, 3 independent experiments, read-out: Ki (nM ± SEM) DOR
[10] = Table 3-6, 3 independent experiments, read-out: Ki (nM ± SEM) KOR
[11] = Table 3-6, 3 independent experiments, read-out: Ki (nM ± SEM) MOR
[12] = Ki (nM ± SEM) DOR, Table 3-6, 3 independent experiments
[13] = Ki (nM ± SEM) a2A-AR, Table 3-6, 3 independent experiments
[14] = Table B2, mean ± SEM, 3 independent experiments, read-out: MOR Ki ± SEM
[15] = Alpha2A Ki ± SEM (nM), Table B2, mean ± SEM, 3 independent experiments
[16] = Table A4, data summary #2, read-out: DOR Ki ± SEM
[17] = Table A4, data summary #2, read-out: KOR Ki ± SEM
[18] = Table A4, data summary #2, read-out: MOR Ki ± SEM

Chain of hDOR (P41143 whole entry): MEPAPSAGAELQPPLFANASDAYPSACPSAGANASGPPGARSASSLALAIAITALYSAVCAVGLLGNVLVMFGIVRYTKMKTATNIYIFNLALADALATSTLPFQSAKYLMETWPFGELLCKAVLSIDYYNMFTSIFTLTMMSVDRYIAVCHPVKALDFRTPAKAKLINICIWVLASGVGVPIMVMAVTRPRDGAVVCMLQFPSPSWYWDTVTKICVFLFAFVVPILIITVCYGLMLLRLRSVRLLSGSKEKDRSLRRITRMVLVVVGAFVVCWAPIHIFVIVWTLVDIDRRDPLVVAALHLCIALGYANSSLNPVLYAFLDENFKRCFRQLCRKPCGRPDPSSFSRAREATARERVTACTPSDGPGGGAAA
Chain of hKOR (P41145 whole entry): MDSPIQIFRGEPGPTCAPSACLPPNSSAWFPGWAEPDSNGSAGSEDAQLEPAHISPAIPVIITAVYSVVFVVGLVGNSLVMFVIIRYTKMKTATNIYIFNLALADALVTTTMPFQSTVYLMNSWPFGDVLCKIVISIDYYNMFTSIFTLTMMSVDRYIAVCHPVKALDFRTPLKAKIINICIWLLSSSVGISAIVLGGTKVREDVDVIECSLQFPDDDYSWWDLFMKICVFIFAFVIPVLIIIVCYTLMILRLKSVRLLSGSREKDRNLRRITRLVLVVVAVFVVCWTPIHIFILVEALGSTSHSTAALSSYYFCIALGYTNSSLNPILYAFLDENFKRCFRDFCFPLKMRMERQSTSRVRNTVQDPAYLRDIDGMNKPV
Chain of hMOR (P35372 whole entry): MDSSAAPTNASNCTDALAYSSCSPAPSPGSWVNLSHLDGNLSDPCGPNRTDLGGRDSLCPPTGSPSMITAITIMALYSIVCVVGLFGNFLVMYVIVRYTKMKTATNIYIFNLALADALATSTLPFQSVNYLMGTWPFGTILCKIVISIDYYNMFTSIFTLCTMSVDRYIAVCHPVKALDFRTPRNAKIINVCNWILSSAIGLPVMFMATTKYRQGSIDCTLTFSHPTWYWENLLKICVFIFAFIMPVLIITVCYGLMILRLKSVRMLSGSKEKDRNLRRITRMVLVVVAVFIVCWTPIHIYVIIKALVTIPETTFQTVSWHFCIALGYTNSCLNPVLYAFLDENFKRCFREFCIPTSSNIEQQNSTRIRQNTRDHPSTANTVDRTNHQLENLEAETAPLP

SMILES: COC=C(C(=O)OC)C1CCN(Cc2ccccc2)CC1 [Compound 3-50]
- Ki ([1]; Table 3-4, 3 independent experiments, read-out: Ki (nM ± SEM) DOR): > 10000 nM
- Ki ([2]; Table 3-4, 3 independent experiments, read-out: Ki (nM ± SEM) KOR): 5700 ± 558 nM
- Ki ([3]; Table 3-4, 3 independent experiments, read-out: Ki (nM ± SEM) MOR): > 10000 nM
- Ki ([4]; Ki (nM ± SEM) a2A-AR, Table 3-4, 3 independent experiments): > 10000 nM

SMILES: COC=C(C(=O)OC)C1CCN(Cc2c[nH]c3ccccc23)CC1 [Compound 3-57]
- Ki [1, 5]: > 10000 nM
- Ki [2, 6]: > 10000 nM
- Ki [3, 7]: > 10000 nM
- Ki ([4]; Ki (nM ± SEM) a2A-ar, Table 3-5, 3 independent experiments): 867 ± 370 nM

SMILES: COC(=O)CC1CCN(Cc2c[nH]c3ccccc23)CC1 [Compound 3-58]
- Ki [1, 5]: > 10000 nM
- Ki [2, 6]: 791 ± 216 nM
- SR: Selectivity Ratio (KiMOR/Kiα2A) ([3]; Table 3-5): 0.78
- Ki [3, 7]: 2700 ± 580 nM
- Ki [4, 8]: 3460 ± 428 nM

SMILES: COC(=O)CC1CCN(CC(=O)c2c[nH]c3cccc(OC)c23)CC1 [Compound 3-63]
- Ki [1, 5]: > 10000 nM
- Ki [2, 6]: > 10000 nM
- Ki [3, 7]: > 10000 nM
- Ki [4, 8]: 6370 ± 1160 nM

SMILES: COC(=O)CN1CCN(CCc2c[nH]c3cccc(OC)c23)CC1 [Compound 3-65]
- Ki [1, 9]: > 10000 nM
- Ki [2, 10]: > 10000 nM
- Ki [3, 11]: > 10000 nM
- Ki ([4]; Table 3-6, 3 independent experiments, read-out: Ki (nM ± SEM) a2A-AR): 265 ± 64.3 nM

SMILES: COC(=O)CN1CCN(CCc2c[nH]c3ccccc23)CC1 [Compound 3-66]
- Ki [1, 12]: > 10000 nM
- Ki [2, 10]: > 10000 nM
- SR: Selectivity Ratio (KiMOR/Kiα2A) ([3]; Table 3-6): 0.21
- Ki [3, 11]: 2030 ± 694 nM
- Ki [4, 13]: 9760 ± 4830 nM

SMILES: COC(=O)NC1CCN(CCc2c[nH]c3ccccc23)CC1 [Compound 3-68]
- Ki [1, 9]: > 10000 nM
- Ki [2, 10]: > 10000 nM
- SR: Selectivity Ratio (KiMOR/Kiα2A) ([3]; Table 3-6): 0.37
- Ki [3, 11]: 1890 ± 454 nM
- Ki [4, 13]: 5090 ± 730 nM

SMILES: COCC(C(=O)OC)C1CCN(CCc2c[nH]c3ccccc23)CC1 (centres unmarked) [Compound 3-71]
- Ki [1, 12]: > 10000 nM
- Ki [2, 10]: > 10000 nM
- SR: Selectivity Ratio (KiMOR/Kiα2A) ([3]; Table 3-6): 2.02
- Ki [3, 11]: 5580 ± 1700 nM
- Ki [4, 13]: 2760 ± 281 nM

SMILES: COC(=O)CC1CCN2CCC(O)(c3ccccc3)CC2C1 (centres unmarked) [SG-01-049]
- Ki [3, 14]: 9810 ± 2860 nM
- Ki [4, 15]: 80 ± 19 nM

SMILES: COC(=O)C=C1CCN2CCC(O)(c3ccccc3)CC2C1 (centres unmarked) [SG-01-053]
- Ki [3, 14]: > 10000 nM
- Ki [4, 15]: 95 ± 35 nM

SMILES: CC[C@@H]1CN2CCc3c([nH]c4cccc(OC)c34)[C@@H]2C[C@@H]1/C(=C\OC)C(=O)n1cccc1 [SUSM-526]
- Ki [1, 16]: > 10000 nM
- Ki ([2]; Table A1, data summary #1, read-out: KOR Ki ± SEM): 5800 ± 1390 nM
- Ki [2, 17]: > 10000 nM
- Ki ([2]; read-out: Ki at hKOR): 57900 nM
- Ki ([3]; Table A1, data summary #1, read-out: MOR Ki ± SEM): 2160 ± 941 nM
- Ki [3, 18]: 719 ± 414 nM
- Ki ([3]; read-out: Ki at hMOR / opioid binding (converted)): 21600 nM
- Ki ([4]; Table A4, data summary #2, read-out: Alpha2A Ki ± SEM): > 10000 nM

SMILES: CC[C@@H]1CN2CCc3c([nH]c4cccc(OC)c34)[C@@H]2C[C@@H]1/C(=C\OC)C(=O)N1CCOCC1 [SUSM-527, (E)-2-((2S,3S,12bS)-3-ethyl-8-methoxy-1,2,3,4,6,7,12,12b-octahydroindolo[2,3-a]quinolizin-2-yl)-3-methoxy-1-morpholinoprop-2-en-1-one]
- Ki [1, 16]: > 10000 nM
- Ki [3, 18]: 1660 ± 427 nM

SMILES: CC[C@@H]1CN2CCc3c([nH]c4cccc(OC)c34)[C@@H]2C[C@@H]1/C(=C\OC)C(=O)NCc1ccccc1 [SUSM-560]
- Ki [1, 16]: > 10000 nM
- Ki [3, 18]: 5320 ± 800 nM

SMILES: CC[C@@H]1CN2CCc3c([nH]c4cccc(OC)c34)[C@@H]2C[C@@H]1/C(=C\OC)C(=O)N1CCNCC1 [SUSM-562, (E)-2-((2S,3S,12bS)-3-ethyl-8-methoxy-1,2,3,4,6,7,12,12b-octahydroindolo[2,3-a]quinolizin-2-yl)-3-methoxy-1-(piperazin-1-yl)prop-2-en-1-one]
- Ki [1]: > 10000 nM
- Ki [3, 18]: 4210 ± 558 nM

SMILES: CC[C@@H]1CN2CCc3c([nH]c4cccc(OC)c34)[C@@H]2C[C@@H]1/C(=C\OC)C(=O)N(C)Cc1ccccc1 [SUSM-563, (E)-N-benzyl-2-((2S,3S,12bS)-3-ethyl-8-methoxy-1,2,3,4,6,7,12,12b-octahydroindolo[2,3-a]quinolizin-2-yl)-3-methoxy-N-methylacrylamide]
- Ki [1, 16]: 4520 ± 1990 nM
- Ki [3, 18]: 5750 ± 770 nM

SMILES: CC[C@@H]1CN2CCc3c([nH]c4cccc(OC)c34)[C@@H]2C[C@@H]1/C(=C\OC)C(=O)N1CCSCC1 [SUSM-564]
- Ki [1, 16]: > 10000 nM
- Ki [3, 18]: 134 ± 32 nM

SMILES: [2H]C([2H])([2H])N(C(=O)/C(=C/OC)[C@H]1C[C@H]2c3[nH]c4cccc(OC)c4c3CCN2C[C@H]1CC)C([2H])([2H])[2H] [SUSM-566]
- Ki ([1]; DOR Ki ± SEM (nM), Table A4, data summary #2): 8300 ± 3300 nM
- Ki [2, 17]: 1800 ± 251 nM
- Ki [3, 18]: 330 ± 28 nM
- Ki ([4]; Alpha2A Ki ± SEM (nM), Table A4, data summary #2): 1960 ± 535 nM
